Several values for one entry are separate records, joined by “and”; a condition that tells them apart may be missing. Identical values can stand only once.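 48-hour exposure; five concentrations; linearly interpolated endpoints. Here, GI50 denotes the concentration required for 50% inhibition of growth. TGI denotes the concentration required for complete inhibition of growth.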

Assay in all cases: NCI-60 cell line screen, 48 h
The subject of test [1] is BT-549 breast.
Test [2] concerns COLO 205 colon.
The subject of test [3] is HL-60(TB) leukemia.
Test [4] deals with HS 578T breast.
The subject of test [5] is MCF7 breast.
Test [6] concerns MDA-MB-231 breast.
For test [7], the system named is SF-295 CNS.
For test [8], the system named is SK-OV-3 ovarian.
Test [9] has as its system UACC-257 melanoma.
The subject of test [10] is HCC-2998 colon.

For `CN(C)CCCNC(=O)c1cc(NC(=O)c2cc(NC(=O)CCc3c[nH]c4ccccc34)cn2C)cn1C`, the GI50 in [1], in test [2], in test [3], in test [4], in [5] and in test [6] was over 100 µM in each case. Besides, the GI50 in [7], in test [8] and in test [9] was over 100 µM each time. Moreover, the TGI in test [1], in test [2], in [3], in test [4], in [5] and in test [6] was over 100 µM in each case. The TGI in test [7], in test [8] and in test [9] was over 100 µM each time.
In the case of `CN[C@H]1C=C[C@@H]2/C=C(C)/C=C/[C@@H](C)[C@H]([C@H](C)[C@H](O)[C@@H](C)NC(C)=O)OC(=O)/C=C/C=C(C)\C=C\[C@]2(C)C1`, the GI50 is 0.0049 µM in test [1]; 0.00815 µM in [2]; 5.5 µM in test [10]; 0.0332 µM in [3]; 0.0597 µM and 0.0123 µM in test [4]; < 0.001 µM and 0.0049 µM in [5]. The GI50 in test [6] was 0.0049 µM; in test [7], < 0.001 µM and 0.0049 µM; in test [8], under 0.001 µM. The TGI in test [1] is over 49 µM; in test [2], 8.64 µM; in test [10] it was over 49 µM; in test [3], 35.7 µM; in test [4] it was over 49 µM; in test [5], over 49 µM. In addition, the values for the TGI in [6] and in [9] were 9.97 µM and over 49 µM, respectively.
Turning to `FC(F)c1nc2ccccc2n1-c1nc(N2CCOCC2)nc(N2CCOCC2)n1`, the GI50 in test [1] is 0.0992 µM and 0.145 µM; in test [2] it was 0.277 µM and 0.507 µM; in [10] it was 0.497 µM and 0.807 µM; in test [3], 0.153 µM and 0.351 µM; in test [4], 0.143 µM and 0.0684 µM; in test [5], 0.136 µM and 0.129 µM. The GI50 in test [6] was 0.448 µM and 2.13 µM; in [7] it was 0.237 µM and 0.196 µM; in test [8], 0.175 µM and 0.27 µM; in test [9] it was 0.264 µM and 0.25 µM. Besides, the TGI in [1] is 1.26 µM and 3.97 µM; in test [3] it was over 100 µM; in [4], 0.995 µM and 0.773 µM; in test [5] it was over 62.7 µM; in test [7] it was 1.63 µM and 1.78 µM; in test [8], 1.03 µM and 1.94 µM. Further, the TGI in test [9] is 3.09 µM and 3.64 µM.
As for `O=C1c2ccccc2-c2c1c1c(=O)[nH]c3ccccc3c1n2Cc1ccccc1`, the GI50 in [1] is 19.5 µM; in [2], over 100 µM; in test [3] it was over 100 µM; in test [4], 16.5 µM; in [5] it was 35.8 µM; in [6], 20.5 µM. For the same compound, the figures for the GI50 in test [7], in [8] and in [9] were 17.2 µM, 20.7 µM and over 100 µM, respectively. Also, the TGI is 34.7 µM in test [1]; over 100 µM in test [2]; over 100 µM in test [3]; 35.7 µM in [4]; over 100 µM in test [5]; 48 µM in test [6]. Further, the TGI in test [7] was 40.9 µM; in [8] it was 45.8 µM; in test [9], over 100 µM.
For `COc1cc(-c2cc3ncccc3c3nc(N)c4cccnc4c23)cc(OC)c1OC`, the GI50 in test [1] is 0.285 µM; in [2], 0.246 µM; in [10], 1.66 µM; in test [3] it was 0.217 µM; in test [4], 0.692 µM; in test [5], 0.327 µM. Also, the GI50 in test [6] was 1.25 µM; in [7], 0.308 µM; in [8] it was 0.538 µM; in test [9] it was 2.08 µM. The TGI was 1.88 µM in test [1]; 18.9 µM in test [2]; over 100 µM in test [10]; 0.717 µM in [3]; over 100 µM in test [4]; over 100 µM in test [5]. The TGI in [6] is over 100 µM; in [7], 15.5 µM; in [8] it was 72.5 µM; in [9], 44.7 µM.
As to `CC(=O)O[C@H]1CC[C@@]2(C)C(=CC[C@H]3[C@@H]4CC[C@H](c5cc(C(F)(F)F)n(C(C)=O)n5)[C@@]4(C)CC[C@@H]32)C1`, the TGI in test [1] is 25.8 µM; in test [2] it was 14.5 µM; in test [10], 27.3 µM; in test [3] it was 15.4 µM; in test [4] it was over 60.8 µM; in test [5] it was 18.7 µM. Further, the TGI in test [6] was determined as 14.8 µM; in [7] it was 17 µM; in [8], 25.4 µM; in test [9] it was 13.9 µM.
Regarding `CC(C)(C)C(=O)c1c(C(F)(F)F)n([O-])c2ccccc2[n+]1=O`, the GI50 is 0.428 µM in test [1]; 0.616 µM in [2]; 0.204 µM in [3]; 0.185 µM in test [4]; 0.421 µM in test [5]; 0.56 µM in test [6]. Moreover, the values for the GI50 in test [7], in [8] and in [9] were 0.294 µM, 1.67 µM and 1.46 µM, respectively. The TGI in [1] was determined as 1.59 µM; in test [2], 1.73 µM; in test [3] it was 1.08 µM; in test [4], 0.728 µM; in test [5], 2.03 µM; in test [6], 2.3 µM. Also, the TGI in [7] came out at 1.27 µM; in [8] it was 3.07 µM; in test [9], 5.57 µM.
Consider `COc1ccc(-c2cn[nH]c2-c2cc(OC)c3c(c2)OCO3)cc1`, for which the GI50 in test [1] was 2.26 µM; in test [2], 0.164 µM; in test [10], 0.649 µM; in test [3] it was 0.22 µM; in [4], 0.311 µM; in test [5], 0.116 µM. Also, the GI50 in test [6] is 0.643 µM; in test [7], 0.181 µM; in test [8] it was 0.386 µM. Also, the TGI amounted to 25.8 µM in test [1]; 0.768 µM in test [2]; 11.8 µM in [10]; 0.771 µM in [3]; 26.2 µM in test [4]; 15.8 µM in [5]. Further, the TGI was 8.35 µM in test [6], 4.15 µM in test [7] and 5.45 µM in test [8].
For `COc1ccc(S(=O)(=O)N2CC(C)(C)CN(S(=O)(=O)c3ccc(OC)cc3)C2C(=O)NO)cc1`, the GI50 in test [1] is over 20 µM; in [2], over 20 µM; in test [3], over 10.6 µM; in [4], over 6.77 µM; in [5], over 20 µM; in test [6], over 16.2 µM. In addition, the GI50 is over 20 µM in [7], over 20 µM in test [8] and over 19.1 µM in test [9]. For the same compound, the TGI in test [1], in test [2], in test [3], in test [4], in test [5] and in test [6] was over 20 µM throughout. Moreover, the TGI in test [7], in test [8] and in [9] was over 20 µM in each case.
Turning to `COc1cc(C#Cc2ccc(=O)oc2C#Cc2ccccc2)cc(OC)c1OC`, the GI50 in test [1] was 1.97 µM; in test [10], 2.6 µM; in test [3], 4.62 µM; in test [4], 5.83 µM; in test [5], 1.99 µM; in test [6] it was 2.84 µM. Besides, the GI50 was 18.3 µM in test [7], 15.2 µM in [8] and 6.81 µM in test [9]. Besides, the TGI in test [1] was found to be 4.21 µM; in [10], 9.87 µM; in test [3], 40.1 µM; in [4], 43.9 µM; in test [5] it was 4.86 µM; in test [6], 7.87 µM. Moreover, the TGI in [7] was 38.9 µM; in test [8] it was over 74.5 µM; in test [9], 15.6 µM.
As for `FC(F)(F)c1nc2nc(Cl)c(Cl)nc2n1CCCN1CCOCC1`, the TGI in test [1] was over 100 µM; in test [2], over 100 µM; in [3], 40.3 µM; in test [4], over 100 µM; in test [5], over 100 µM; in test [6], over 100 µM. Also, the TGI in test [7] was over 100 µM; in test [8] it was over 100 µM; in test [9] it was 64 µM.
Turning to `Cc1ccc(-c2csc(/N=C3\C(=O)Nc4ccccc43)n2)cc1`, the GI50 in test [1] was 1.49 µM; in test [2] it was 1.31 µM; in test [10] it was 1.6 µM; in [4] it was 1.97 µM; in test [5], 1.01 µM; in [6], 1.52 µM. Besides, the GI50 in test [7] is 1.32 µM; in test [8], 1.61 µM. Besides, the TGI came out at 3.06 µM in test [1]; 3.23 µM in [2]; 3.21 µM in [10]; 6.66 µM in test [4]; 3.11 µM in test [5]; 3.48 µM in test [6]. The TGI in test [7] worked out at 2.87 µM; in test [8], 3.55 µM.
On to `Cc1cc(=O)oc2cc(OC(=O)N(C)C)c(Cl)cc12`, for which the TGI in test [1], in [2], in [10], in [3], in [4] and in test [5] was over 100 µM each time. Also, the TGI in [6] and in test [9] was over 100 µM throughout.
For `Cc1nn(-c2nc3ccccc3[nH]2)c(N)c1-c1ccc(Cl)cc1`, the GI50 is 12.9 µM in test [1]; 4.17 µM in test [2]; 5.12 µM in test [10]; 4.31 µM in test [3]; 9.24 µM in test [4]; 4.31 µM in test [5]. Also, the GI50 in test [6] was 4.5 µM; in test [8], 7.4 µM; in test [9] it was 2.63 µM. The TGI in [1] was over 100 µM; in [2], over 100 µM; in [10], over 100 µM; in [3], 25.1 µM; in test [4], over 100 µM; in test [5], over 100 µM. For the same compound, the TGI in [6] is over 100 µM; in test [8], over 100 µM; in [9], 55.8 µM.
Turning to `Cc1ccc(S(=O)(=O)NC(=O)C2C(=O)CC3(CCCCC3)CC2=O)cc1`, the TGI in [1] was 75 µM; in [2] it was 32.2 µM; in test [3], 65.8 µM; in test [4] it was over 100 µM; in test [5] it was 55.7 µM; in [6], over 100 µM. Also, the TGI in test [7] was 67.1 µM; in test [8], over 100 µM; in test [9], 78.1 µM.
As for `COc1ccc2c(C)cc(N/N=C/c3ccc(OC)c4ccccc34)nc2c1`, the TGI worked out at 46.2 µM in [1]; 42 µM in test [2]; 49.3 µM in test [3]; 32.8 µM in [4]; 44.6 µM in test [5]; 17.4 µM in test [6]. Also, the TGI worked out at 32 µM in test [7], 33.8 µM in test [8] and 36.9 µM in [9].
For `CCOc1ccc2nc(SCc3nc4n(n3)S(=O)(=O)c3ccccc3N4C)sc2c1`, the GI50 was 59.3 µM in [1]; over 100 µM in test [2]; 82.7 µM in [3]; 45 µM in [4]; over 100 µM in test [5]; 73.1 µM in [6]. Also, the GI50 in test [7], in test [8] and in [9] was over 100 µM in each case. Moreover, the TGI in test [1], in test [2], in test [3], in test [4], in [5] and in test [6] was over 100 µM each time. Moreover, the TGI in test [7], in test [8] and in test [9] was over 100 µM throughout.
In the case of `C=C1C(O)C2C(=C(CCc3ccccc3)C13CC3)C(=O)C(C)(CO)C2O` (configuration not stated), the GI50 in test [1] was over 100 µM; in [2] it was over 100 µM; in test [10], over 100 µM; in test [3], 81.9 µM; in [4], 14.3 µM; in test [5] it was 53.5 µM. In addition, the GI50 in test [6], in test [7] and in [9] was over 100 µM throughout. The TGI in [1] was over 100 µM; in [2] it was over 100 µM; in [10], over 100 µM; in [3], over 100 µM; in test [4] it was 99.8 µM; in test [5], over 100 µM. The TGI in test [6], in [7] and in [9] was over 100 µM throughout.

Source of the values: PubChem BioAssay (NCI).
